PubChem BioAssay (NCI)
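Abbreviation: GI50, concentration required for 50% inhibition of growth. TGI: concentration producing complete growth inhibition.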

Key:
Assay in all cases: growth of human tumour cells (NCI), 384-well format
[1] = tested on: SK-MEL-5 melanoma
[2] = tested on: NCI-H460 NSCLC
[3] = tested on: A498 renal
[4] = tested on: IGROV1 ovarian
[5] = tested on: BT-549 breast
[6] = tested on: ACHN renal
[7] = tested on: MOLT-4 leukemia
[8] = tested on: PC-3 prostate
[9] = tested on: HCC-2998 colon
[10] = tested on: OVCAR-3 ovarian
[11] = tested on: RXF 393 renal
[12] = tested on: SF-295 CNS
[13] = tested on: SK-OV-3 ovarian
[14] = tested on: SN12C renal
[15] = tested on: NCI-H23 lung
[16] = tested on: HCT-116 colon
[17] = tested on: DU-145 prostate
[18] = tested on: RPMI-8226 leukemia
[19] = tested on: OVCAR-5 ovarian
[20] = tested on: LOX IMVI melanoma
[21] = tested on: HL-60(TB) leukemia
[22] = tested on: 786-0 renal
[23] = tested on: MCF7 breast
[24] = tested on: M14 melanoma
[25] = tested on: NCI/ADR-RES ovarian
[26] = tested on: MDA-MB-468 breast
[27] = tested on: NCI-H522 lung
[28] = tested on: HOP-62 NSCLC
[29] = tested on: OVCAR-8 ovarian
[30] = tested on: A549 NSCLC
[31] = tested on: CAKI-1 renal
[32] = tested on: KM12 colon
[33] = tested on: HS 578T breast
[34] = tested on: HT29 colon
[35] = tested on: OVCAR-4 ovarian
[36] = tested on: MDA-MB-231 breast
[37] = tested on: MALME-3M melanoma
[38] = tested on: MDA-MB-435 melanoma
[39] = tested on: NCI-H226 lung
[40] = tested on: HOP-92 NSCLC
[41] = tested on: COLO 205 colon
[42] = tested on: NCI-H322M lung
[43] = tested on: HCT-15 colon
[44] = tested on: EKVX NSCLC
[45] = tested on: TK-10 renal
[46] = tested on: SK-MEL-2 melanoma
[47] = tested on: SNB-75 CNS
[48] = tested on: CCRF-CEM leukemia
[49] = tested on: U251 glioblastoma
[50] = tested on: SF-539 CNS
[51] = tested on: SNB-19 CNS
[52] = tested on: SW-620 colon
[53] = tested on: K-562 leukemia
[54] = tested on: SK-MEL-28 melanoma
[55] = tested on: UACC-257 melanoma
[56] = tested on: SF-268 CNS
[57] = tested on: UACC-62 melanoma
[58] = tested on: T-47D breast
[59] = tested on: UO-31 renal

Compound: Cc1cn(-c2cc(NC(=O)c3ccc(C)c(Nc4nccc(-c5cccnc5)n4)c3)cc(C(F)(F)F)c2)cn1
- GI50 [1]: 1.28 µM
- TGI [1]: 2.6 µM
- GI50 [2]: 2.67 µM
- TGI [2]: 9.42 µM
- GI50 [3]: 1.98 µM
- TGI [3]: 3.94 µM
- GI50 [4]: 1.87 µM
- TGI [4]: 3.61 µM
- GI50 [5]: 1.99 µM
- TGI [5]: 3.43 µM
- GI50 [6]: 1.64 µM
- TGI [6]: 3.47 µM
- GI50 [7]: 1.89 µM
- TGI [7]: > 100 µM
- GI50 [8]: 1.71 µM
- TGI [8]: 3.13 µM
- GI50 [9]: 2.24 µM
- TGI [9]: 5.36 µM
- GI50 [10]: 1.73 µM
- TGI [10]: 3.36 µM
- GI50 [11]: 1.47 µM
- TGI [11]: 2.84 µM
- GI50 [12]: 1.74 µM
- TGI [12]: 3.39 µM
- GI50 [13]: 1.83 µM
- TGI [13]: 3.3 µM
- GI50 [14]: 3.61 µM
- TGI [14]: > 100 µM
- GI50 [15]: 2.24 µM
- TGI [15]: 7.48 µM
- GI50 [16]: 1.65 µM
- TGI [16]: 3.75 µM
- GI50 [17]: 2.8 µM
- TGI [17]: 7.6 µM
- GI50 [18]: 1.46 µM
- TGI [18]: 5.45 µM
- GI50 [19]: 1.91 µM
- TGI [19]: 5.09 µM
- GI50 [20]: 2.2 µM
- TGI [20]: 9.93 µM
- GI50 [21]: 1.46 µM
- TGI [21]: 7.92 µM
- GI50 [22]: 1.64 µM
- TGI [22]: 3.03 µM
- GI50 [23]: 1.88 µM
- TGI [23]: 3.67 µM
- GI50 [24]: 1.19 µM
- TGI [24]: 2.53 µM
- GI50 [25]: 1.58 µM
- TGI [25]: 3.74 µM
- GI50 [26]: 1.77 µM
- TGI [26]: 3.31 µM
- GI50 [27]: 1.82 µM
- TGI [27]: 4.48 µM
- GI50 [28]: 2.21 µM
- TGI [28]: 5.73 µM
- GI50 [29]: 1.59 µM
- TGI [29]: 3.32 µM
- GI50 [30]: 1.72 µM
- TGI [30]: 3.16 µM
- GI50 [31]: 3.04 µM
- TGI [31]: 10.8 µM
- GI50 [32]: 2.5 µM
- TGI [32]: 6.87 µM
- GI50 [33]: 1.55 µM
- TGI [33]: 2.9 µM
- GI50 [34]: 1.66 µM
- TGI [34]: 3.78 µM
- GI50 [35]: 3.16 µM
- TGI [35]: 7.25 µM
- GI50 [36]: 1.3 µM
- TGI [36]: 3.65 µM
- GI50 [37]: 0.447 µM
- TGI [37]: 1.62 µM
- GI50 [38]: 1.72 µM
- TGI [38]: 3.49 µM
- GI50 [39]: 1.7 µM
- TGI [39]: 3.68 µM
- GI50 [40]: 1.66 µM
- TGI [40]: 3.6 µM
- GI50 [41]: 1.28 µM
- TGI [41]: 2.98 µM
- GI50 [42]: 2.29 µM
- TGI [42]: 4.63 µM
- GI50 [43]: 3.6 µM
- TGI [43]: 14.2 µM
- GI50 [44]: 1.88 µM
- TGI [44]: 3.78 µM

Compound: COc1cc(OC)c(C(=O)C(CN(C)C)CN(C)C)cc1OC
- GI50 [45]: 1.54 µM
- TGI [45]: 3.04 µM
- GI50 [1]: 5.64 µM
- TGI [1]: 18.4 µM
- GI50 [2]: 2.75 µM
- TGI [2]: 6.41 µM
- GI50 [3]: 12.5 µM
- TGI [3]: 25.1 µM
- GI50 [4]: 2.06 µM
- TGI [4]: 4.43 µM
- GI50 [46]: 1.7 µM
- TGI [46]: 3.67 µM
- GI50 [5]: 3.06 µM
- TGI [5]: 8.06 µM
- GI50 [47]: 19.8 µM
- TGI [47]: 34.1 µM
- GI50 [6]: 1.41 µM
- TGI [6]: 2.74 µM
- GI50 [7]: 0.225 µM
- TGI [7]: 0.591 µM
- GI50 [48]: 0.369 µM
- TGI [48]: 1.38 µM
- GI50 [49]: 7.75 µM
- TGI [49]: 20 µM
- GI50 [8]: 3 µM
- TGI [8]: 7.62 µM
- GI50 [9]: 4.8 µM
- TGI [9]: 18.6 µM
- GI50 [10]: 1.71 µM
- TGI [10]: 3.37 µM
- GI50 [11]: 1.92 µM
- TGI [11]: 3.44 µM
- GI50 [50]: 1.6 µM
- TGI [50]: 3.06 µM
- GI50 [12]: 19.2 µM
- TGI [12]: 39.3 µM
- GI50 [13]: 16.9 µM
- TGI [13]: 30.7 µM
- GI50 [51]: 14.4 µM
- TGI [51]: 27.7 µM
- GI50 [14]: 1.81 µM
- TGI [14]: 3.58 µM
- GI50 [52]: 1.14 µM
- TGI [52]: 2.44 µM
- GI50 [15]: 2.17 µM
- TGI [15]: 4.18 µM
- GI50 [16]: 1.41 µM
- TGI [16]: 2.82 µM
- GI50 [17]: 4.56 µM
- TGI [17]: 15 µM
- GI50 [18]: 0.419 µM
- TGI [18]: 1.14 µM
- GI50 [20]: 6.55 µM
- TGI [20]: 19.9 µM
- GI50 [21]: 0.146 µM
- TGI [21]: 0.279 µM
- GI50 [22]: 2.27 µM
- TGI [22]: 4.92 µM
- GI50 [23]: 1.83 µM
- TGI [23]: 3.77 µM
- GI50 [24]: 2.16 µM
- TGI [24]: 4.3 µM
- GI50 [25]: 2.12 µM
- TGI [25]: 4.11 µM
- GI50 [26]: 0.317 µM
- TGI [26]: 0.697 µM
- GI50 [53]: 6 µM
- TGI [53]: 18.1 µM
- GI50 [27]: 0.382 µM
- TGI [27]: 1.57 µM
- GI50 [28]: 22 µM
- TGI [28]: 36.6 µM
- GI50 [29]: 1.44 µM
- TGI [29]: 2.84 µM
- GI50 [30]: 14.1 µM
- TGI [30]: 27.6 µM
- GI50 [31]: 1.02 µM
- TGI [31]: 2.22 µM
- GI50 [32]: 3.64 µM
- TGI [32]: 9.17 µM
- GI50 [33]: 7.53 µM
- TGI [33]: 19.8 µM
- GI50 [34]: 3.42 µM
- TGI [34]: 12.9 µM
- GI50 [35]: 1.81 µM
- TGI [35]: 3.21 µM
- GI50 [37]: 0.999 µM
- TGI [37]: 2.17 µM
- GI50 [38]: 3.27 µM
- TGI [38]: 8.94 µM
- GI50 [39]: 1.91 µM
- TGI [39]: 4.42 µM
- GI50 [40]: 2.12 µM
- TGI [40]: 3.66 µM
- GI50 [41]: 0.696 µM
- TGI [41]: 1.96 µM
- GI50 [54]: 3.32 µM
- TGI [54]: 7.76 µM
- GI50 [42]: 18.4 µM
- TGI [42]: 32.5 µM
- GI50 [55]: 1.41 µM
- TGI [55]: 2.81 µM
- GI50 [56]: 17.2 µM
- TGI [56]: 31.1 µM
- GI50 [43]: 1.49 µM
- TGI [43]: 2.88 µM
- GI50 [44]: 10.4 µM
- TGI [44]: 22.3 µM
- GI50 [57]: 2.06 µM
- TGI [57]: 4.4 µM

Compound: S=P(N1CC1)(N1CC1)N1CC1
- GI50 [3]: 39.4 µM
- GI50 [5]: 29 µM
- GI50 [47]: 22 µM
- GI50 [6]: 19.9 µM
- TGI [6]: 63.4 µM
- GI50 [7]: 0.4 µM
- TGI [7]: 1.49 µM
- GI50 [48]: 4.2 µM
- TGI [48]: 11 µM
- GI50 [58]: 93.6 µM
- GI50 [49]: 20.7 µM
- GI50 [10]: 43.3 µM
- GI50 [59]: 74.4 µM
- GI50 [11]: 53.9 µM
- GI50 [50]: 20.2 µM
- TGI [50]: 92.8 µM
- GI50 [12]: 11.3 µM
- TGI [12]: 31.3 µM
- GI50 [13]: 29.8 µM
- GI50 [51]: 41.6 µM
- GI50 [14]: 9.52 µM
- GI50 [52]: 61.6 µM
- GI50 [15]: 17.3 µM
- TGI [15]: 99.5 µM
- GI50 [16]: 34.1 µM
- GI50 [17]: 7.82 µM
- TGI [17]: 98.9 µM
- GI50 [18]: 12 µM
- TGI [18]: 36.4 µM
- GI50 [19]: 70.4 µM
- GI50 [20]: 24.9 µM
- GI50 [21]: 1.27 µM
- TGI [21]: 2.85 µM
- GI50 [22]: 32.7 µM
- GI50 [23]: 21.2 µM
- GI50 [24]: 24.8 µM
- GI50 [25]: 30.1 µM
- GI50 [26]: 3.58 µM
- TGI [26]: 18.7 µM
- GI50 [53]: 74 µM
- GI50 [27]: 45.9 µM
- GI50 [28]: 8.65 µM
- TGI [28]: 31.8 µM
- GI50 [29]: 28 µM
- GI50 [30]: 38.4 µM
- GI50 [31]: 17.8 µM
- GI50 [32]: 93.6 µM
- GI50 [34]: 59.4 µM
- GI50 [39]: 61.3 µM
- GI50 [56]: 9.43 µM
- GI50 [43]: 33.7 µM
- GI50 [57]: 11 µM
